This passage reports IC50 and EC50 results from patent publication US20230391772A1, “METHODS AND COMPOSITIONS FOR TARGETED PROTEIN DEGRADATION” (Ranok Therapeutics (Hangzhou) Co. Ltd., priority 2020, published 2023).

The target of one assay is T1, HSP90a protein (Homo sapiens, UniProt P07900).
T1 construct: purchased BPS Bioscience 50298
The assay can be described thus: HSP90α-binding fluorescent polarization (FP) assay, FITC-geldanamycin probe. The following applies: FP competition with FITC-geldanamycin, 5 nM, 120 min at 25° C. The method, then: HSP90α-Binding Fluorescent Polarization (FP) Assay
Binding of test compounds to HSP90a protein was measured by fluorescent polarization (FP) using the HSP90a (N-terminal) Assay Kit (BPS Bioscience, #50298), following the manufacturer's instructions, except as noted. Fluorescently labeled HSP90-binding compounds, either the provided FITC-geldanamycin (5 nM final concentration) or RNK04010, a triazolone-based HSP90 binding small molecule labeled with BODIPY through a piperizine-phenyl linker (5 nM final concentration) were employed. A 2.5-fold serial dilution of each test compound ranging from 20 μM to 5.2 nM was assayed for binding to HSP90a. After the final step of adding HSP90a protein to each assay well, plates were mixed by brief shaking, incubated at 25° C. for 120 min for FITC-geldanamycin or 300 min for RNK04010, and fluorescence was measured using a PerkinElmer EnVision Plate Reader.

Assay [1] concerns NCI-H358 human non-small cell lung cancer. Nature of the assay: NCI-H358 CCK-8 proliferation assay. The assay is classed as cell-based. The settings on record: NCI-H358 cells, 72 hr. The method in brief: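 MIA PaCa-2 (2 copies KRAS(G12C)), NCI-H358 and NCI-H23 (1 copy KRAS(G12C) each) were exposed to compound in 3-fold serial dilutions from 20 μM to 1.02 nM. Viability was read as CCK-8 absorbance, and % inhibition was computed against DMSO-treated cells, with cell-free DMSO medium as blank.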

Molecules are shown by their SMILES.

Regarding `CCC(=O)N1CCN(c2nc(OC[C@@H]3CCN3C(=O)C3CCN(Cc4ccc(-n5c(O)nnc5-c5cc(C(C)C)c(O)cc5O)cc4)CC3)nc3c2CCN(c2cccc4cccc(Cl)c24)C3)C[C@@H]1CC#N` [Compound 152, 2-((S)-4-(7-(8-chloronaphthalen-1-yl)-2-(((S)-1-(1-(4-(3-(2,4-dihydroxy-5-isopropylphenyl)-5-hydroxy-4H-1,2,4-triazol-4-yl)benzyl)piperidine-4-carbonyl)azetidin-2-yl)methoxy)-5,6,7,8-tetrahydropyrido[3,4-d]pyrimidin-4-yl)-1-propionylpiperazin-2-yl)acetonitrile, trifluoroacetic acid], the IC50 on HSP90a protein was < 0.1 µM. Besides, the EC50 in assay [1] is > 1 µM.
`CCC(=O)N1CCN(c2nc(OC[C@@H]3CCCN3C(=O)C3CCN(Cc4ccc(-n5c(O)nnc5-c5cc(C(C)C)c(O)cc5O)cc4)CC3)nc3c2CCN(c2cccc4cccc(Cl)c24)C3)C[C@@H]1CC#N` [Compound 140, 2-((S)-4-(7-(8-chloronaphthalen-1-yl)-2-(((S)-1-(1-(4-(3-(2,4-dihydroxy-5-isopropylphenyl)-5-hydroxy-4H-1,2,4-triazol-4-yl)benzyl)piperidine-4-carbonyl)pyrrolidin-2-yl)methoxy)-5,6,7,8-tetrahydropyrido[3,4-d]pyrimidin-4-yl)-1-propionylpiperazin-2-yl)acetonitrile] returned an IC50 on HSP90a protein of 0.1 to 1 µM. Besides, the EC50 in assay [1] lay within 0.1 to 1 µM.
`CCC(=O)N1CCN(c2nc(OCCC(=O)NCCc3ccc(CN4CCC(Cc5ccc(-n6c(C(=O)NCC(F)(F)F)nnc6-c6cc(C(C)C)c(O)cc6O)cc5)CC4)cc3)nc3c2CCN(c2cc(O)cc4ccccc24)C3)CC1` [Compound 151, 5-(2,4-dihydroxy-5-isopropylphenyl)-4-(4-((1-(4-(2-(3-((7-(3-hydroxynaphthalen-1-yl)-4-(4-propionylpiperazin-1-yl)-5,6,7,8-tetrahydropyrido[3,4-d]pyrimidin-2-yl)oxy)propanamido)ethyl)benzyl)piperidin-4-yl)methyl)phenyl)-N-(2,2,2-trifluoroethyl)-4H-1,2,4-triazole-3-carboxamide] gave an IC50 at HSP90a protein of 0.1 to 1 µM. The compound also displayed an EC50 in assay [1] of 0.1 to 1 µM.
The compound `CCC(=O)N1CCN(c2nc(OC[C@@H]3CCN(C(=O)C4CCN(Cc5ccc(-n6c(O)nnc6-c6cc(C(C)C)c(O)cc6O)cc5)CC4)C3)nc3c2CCN(c2cccc4cccc(Cl)c24)C3)C[C@@H]1CC#N` [Compound 141, 2-((S)-4-(7-(8-chloronaphthalen-1-yl)-2-(((R)-1-(1-(4-(3-(2,4-dihydroxy-5-isopropylphenyl)-5-hydroxy-4H-1,2,4-triazol-4-yl)benzyl)piperidine-4-carbonyl)pyrrolidin-3-yl)methoxy)-5,6,7,8-tetrahydropyrido[3,4-d]pyrimidin-4-yl)-1-propionylpiperazin-2-yl)acetonitrile] yielded a 50% inhibitory concentration (IC50) at HSP90a protein of 0.1 to 1 µM. In assay [1], this compound yielded an EC50 of 0.1 to 1 µM.
With `C=C(F)C(=O)N1CCN(c2nc(N3CCC(Cc4ccc(-n5c(C(=O)NCC(F)(F)F)nnc5-c5cc(C(C)C)c(O)cc5O)cc4)CC3)nc3c2CCN(c2cccc4cccc(Cl)c24)C3)C[C@@H]1CC#N` [Compound 142, (S)-4-(4-((1-(7-(8-chloronaphthalen-1-yl)-4-(3-(cyanomethyl)-4-(2-fluoroacryloyl)piperazin-1-yl)-5,6,7,8-tetrahydropyrido[3,4-d]pyrimidin-2-yl)piperidin-4-yl)methyl)phenyl)-5-(2,4-dihydroxy-5-isopropylphenyl)-N-(2,2,2-trifluoroethyl)-4H-1,2,4-triazole-3-carboxamide], the IC50 on HSP90a protein is > 1 µM. In assay [1], the half-maximal effective concentration (EC50) is > 1 µM.
`CCC(=O)N1CCN(c2nc(N3CCC(CN4CCN(Cc5ccc(-n6c(O)nnc6-c6cc(CC)c(O)cc6O)cc5)CC4)CC3)nc3c2CCN(c2cccc4cccc(Cl)c24)C3)C[C@@H]1CC#N` [Compound 133, (S)-2-(4-(7-(8-chloronaphthalen-1-yl)-2-(4-((4-(4-(3-(5-ethyl-2,4-dihydroxyphenyl)-5-hydroxy-4H-1,2,4-triazol-4-yl)benzyl)piperazin-1-yl)methyl)piperidin-1-yl)-5,6,7,8-tetrahydropyrido[3,4-d]pyrimidin-4-yl)-1-propionylpiperazin-2-yl)acetonitrile, trifluoroacetic acid]: on HSP90a protein, the IC50 was in the range of 0.1 to 1 µM. In assay [1], the EC50 fell in the range of 0.1 to 1 µM.
`C=C(F)C(=O)N1CCN(c2nc(N3CCC(CN4CCN(Cc5ccc(-n6c(C(=O)NCC(F)(F)F)nnc6-c6cc(CC)c(O)cc6O)cc5)CC4)CC3)nc3c2CCN(c2cccc4cccc(Cl)c24)C3)C[C@@H]1CC#N` [Compound 138, (S)-4-(4-((4-((1-(7-(8-chloronaphthalen-1-yl)-4-(3-(cyanomethyl)-4-(2-fluoroacryloyl)piperazin-1-yl)-5,6,7,8-tetrahydropyrido[3,4-d]pyrimidin-2-yl)piperidin-4-yl)methyl)piperazin-1-yl)methyl)phenyl)-5-(5-ethyl-2,4-dihydroxyphenyl)-N-(2,2,2-trifluoroethyl)-4H-1,2,4-triazole-3-carboxamide]: the 50% inhibitory concentration (IC50) on HSP90a protein is > 1 µM. Also, the EC50 in assay [1] is > 1 µM.
Turning to `CCC(=O)N1CCN(c2nc(NCCCNC(=O)C3CCN(Cc4ccc(-n5c(O)nnc5-c5cc(C(C)C)c(O)cc5O)cc4)CC3)nc3c2CCN(c2cccc4cccc(Cl)c24)C3)C[C@@H]1CC#N` [Compound 134, (S)—N-(3-((7-(8-chloronaphthalen-1-yl)-4-(3-(cyanomethyl)-4-propionylpiperazin-1-yl)-5,6,7,8-tetrahydropyrido[3,4-d]pyrimidin-2-yl)amino)propyl)-1-(4-(3-(2,4-dihydroxy-5-isopropylphenyl)-5-hydroxy-4H-1,2,4-triazol-4-yl)benzyl)piperidine-4-carboxamide, trifluoroacetic acid], on HSP90a protein, the IC50 lay in the range of 0.1 to 1 µM. In addition, the concentration giving a half-maximal response (EC50) in assay [1] is > 1 µM.
Turning to `CCC(=O)N1CCN(c2nc(NCCC(=O)NCCc3ccc(CN4CCC(Cc5ccc(-n6c(C(=O)NCC(F)(F)F)nnc6-c6cc(C(C)C)c(O)cc6O)cc5)CC4)cc3)nc3c2CCN(c2cc(O)cc4ccccc24)C3)CC1` [Compound 149], the concentration for half-maximal inhibition (IC50) on HSP90a protein is 0.1 to 1 µM. Also, in assay [1], the 50% effective concentration (EC50) lay within 0.1 to 1 µM.
In turn, `C=C(F)C(=O)N1CCN(c2nc(N3CCC(CN4CCC(Cc5ccc(-n6c(O)nnc6-c6cc(C(C)C)c(O)cc6O)cc5)CC4)CC3)nc3c2CCN(c2cccc4cccc(Cl)c24)C3)C[C@@H]1CC#N` [Compound 137, (S)-2-(4-(7-(8-chloronaphthalen-1-yl)-2-(4-((4-(4-(3-(2,4-dihydroxy-5-isopropylphenyl)-5-hydroxy-4H-1,2,4-triazol-4-yl)benzyl)piperidin-1-yl)methyl)piperidin-1-yl)-5,6,7,8-tetrahydropyrido[3,4-d]pyrimidin-4-yl)-1-(2-fluoroacryloyl)piperazin-2-yl)acetonitrile, acetic acid] gave an IC50 at HSP90a protein of 0.1 to 1 µM. In addition, in assay [1], the EC50 lay in the range of 0.1 to 1 µM.
`C=C(F)C(=O)N1CCN(c2nc(N3CCC(CN4CCN(Cc5ccc(-n6c(O)nnc6-c6cc(CC)c(O)cc6O)cc5)CC4)CC3)nc3c2CCN(c2cccc4cccc(Cl)c24)C3)C[C@@H]1CC#N` [Compound 135, (S)-2-(4-(7-(8-chloronaphthalen-1-yl)-2-(4-((4-(4-(3-(5-ethyl-2,4-dihydroxyphenyl)-5-hydroxy-4H-1,2,4-triazol-4-yl)benzyl)piperazin-1-yl)methyl)piperidin-1-yl)-5,6,7,8-tetrahydropyrido[3,4-d]pyrimidin-4-yl)-1-(2-fluoroacryloyl)piperazin-2-yl)acetonitrile] registered an IC50 on HSP90a protein of 0.1 to 1 µM. The EC50 in assay [1] is > 1 µM.
